From patent publication US20200032313A1 (SANYO CHEMICAL INDUSTRIES, LTD., priority 2017, published 2020)
Read-outs that look alike come from different tables or passages of the source.

Assays:
Assay type in all cases: cell-based
[1] = test system: acid phosphatase-expressing Candida boidinii; conditions: 8 hours
Experimental: (§1) Candida boidinii was transformed and acid phosphatase-expressing microorganisms were produced based on a method described in a known document (Regulation and evaluation of five methanol-inducible promoters in the methylotrophic yeast Candida boidinii, H. Yurimoto et al., Biochimica et Biophysica Acta, 1493, 2000, pp. 56-63). The acid phosphatase-expressing microorganisms were inoculated using a platinum loop into BMGY broth, and were shake-cultured at 200 rpm at 30° C. for 15 hours. Then, the thus-obtained broth was resuspended in 125-ml BMGY broth to a final OD of 0.1 OD/ml. Further, the resuspended broth was continued to be shake-cultured at 1100 rpm at 30° C. for about 17 hours until OD was 2 to 5. When OD was 2 to 5, methanol was added to a concentration of 2 v/v %, followed by culturing at 1100 rpm at 30° C. for 2 hours.
(§2) Two hours later, the surfactant described in Table 3 was added to the broth in the weight described in Table 3, and the broth was cultured at 1100 rpm at 30° C. for 8 hours. Eight hours later, the broth was sampled for measuring the optical density (optical density at the end of culturing), and was subjected to centrifugation using a centrifuge to separate bacteria and the supernatant from the broth. Then, the supernatant and the bacteria were collected.
Then, 50 mM acetic acid NaBf (pH 4.0) was added to the bacteria, followed by centrifugation, whereby the bacteria were washed. The washed bacteria were resuspended in 50 mM acetic acid NaBf (pH 4.0), whereby a sample for measuring the acid phosphatase activity on the bacterial surface was obtained.
The supernatant obtained in each of Examples 23 to 33 and Comparative Example 3 was mixed with a 2 M sodium acetate buffer (pH 4.0) in an amount of 5 μl that is 1/40 of the amount of the supernatant. The buffer-containing supernatant or the sample for measuring the bacterial surface obtained in each of Examples 23 to 33 was mixed with a substrate solution (50 mM sodium acetate buffer containing 0.64 mg/ml of p-nitrophenylphosphate; pH 4.0) at a capacity ratio of 1:1, and the mixture was reacted at 35° C. for 10 minutes.
After the reaction, a 10% solution of trichloroacetic acid in an amount equal to the amount of the reaction solution was added to the reaction solution to terminate the reaction. To develop a color, a saturated sodium carbonate solution in an amount equal to the total amount of the reaction solution was added to the solution in which the reaction has been terminated. The color-developed solution was centrifuged at 1500×g for 5 minutes to remove the insoluble fraction, and the absorbance at 420 nm was measured using a microplate reader “PowerWave” (Biotek). The reference wavelength was set to 630 nm.
The acid phosphatase activity of each of the supernatant and the sample for measuring the bacterial surface was calculated from the following formula. The thus-obtained acid phosphatase activity of the supernatant was regarded as the “acid phosphatase activity of secreted and produced useful substance” and the acid phosphatase activity of the sample for measuring the bacterial surface was regarded as the “acid phosphatase activity of useful substance remaining on bacterial surface”.
Acid phosphatase activity=((Abs 420 nm)−(Abs 630 nm))/(optical density at the end of culturing)
For each of Examples 23 to 33 and Comparative Example 3, the obtained value of the “acid phosphatase activity of secreted and produced useful substance” and the obtained value of the “acid phosphatase activity of useful substance remaining on bacterial surface” were used to calculate the secretion efficiency from the following mathematical formula.
Secretion efficiency (%)=100×(Acid phosphatase activity of secreted and produced useful substance)/(total acid phosphatase activity) […]

[2] = test system: acid phosphatase-expressing Candida boidinii; conditions: 8 hours culturing after addition
Experimental: as §1, §2
(§3) The optical density of the broth containing the microorganisms collected by sampling was measured in a quartz cell (light path of 1 cm) using a spectrophotometer (UV-1700, Shimadzu Corporation).
(§4) The broth was centrifuged at 1500 rpm at 4° C. for 5 minutes, and the supernatant was discarded. The precipitate was resuspended in a saline solution in an amount equal to the amount of the sample solution, and was diluted in the saline solution to obtain an appropriate absorbance (0.1 to 0.8). Then, the absorbance at 600 nm was measured. The optical density of the broth was calculated using the following mathematical formula (1).
(§5) Broth optical density(OD)=(Absorbance of diluted broth at 600 nm)×dilution factor of broth (Mathematical formula 1)

[3] = test system: luciferase-expressing Pichia pastoris; conditions: 8 hours culturing after addition
Experimental: Transformation was performed using Pichia pastoris distributed by Biotechnology Center, National Institute of Technology and Evaluation, whereby luciferase-expressing microorganisms were produced. A vector pPICZ a (Thermo Fisher Scientific) was digested with XhoI and XbaI, and a synthetic (synthesized by Thermo Fisher Scientific on commission) luciferase gene having an XhoI cut site at one end and an XbaI cut site at the other end was inserted into the vector. The microorganisms were transformed by the luciferase gene-inserted pPICZ a according to the method described in an instruction manual of pPICZ a. The luciferase-expressing microorganisms were inoculated using a platinum loop into BMGY broth, and were shake-cultured at 200 rpm at 30° C. for 15 hours. Then, the thus-obtained broth was resuspended in 125-ml BMGY broth (yeast extract 1 wt % (Difco), bacto peptone 2 wt % (Difco), yeast nitrogen base w/o amino acid 1.34 wt % (Difco), glucose 2 wt %, and 100 mM potassium hydrogen phosphate; pH: 6.0) to a final OD of 0.1 OD/ml. Further, the resuspended broth was continued to be shake-cultured at 1100 rpm at 30° C. for about 17 hours until OD was 20 to 30. When OD was 20 to 30, the broth was centrifuged (1500 g, 10 min), and resuspended in 125-ml BMMY broth, followed by culturing at 1100 rpm at 30° C. for 2 hours.
Two hours later, the surfactant described in Table 2 was added to the broth in the amount (wt %) described in Table 2, and the broth was cultured at 1100 rpm at 30° C. for 8 hours. Subsequently, the broth was sampled for measuring the optical density (optical density at the end of culturing) and for measuring the secretion efficiency. Then, these samples were subjected to centrifugation using a centrifuge to separate bacteria and the supernatant from the broth. Then, the supernatant and the bacteria were collected.
as §3, §4, §5

[4] = surfactant 0.03 wt % of broth, Examples 24, 27-33
[5] = surfactant 0.03 wt % of broth, Examples 13, 16-22
[6] = surfactant 0.003 wt % of broth, Example 23
[7] = surfactant 0.3 wt % of broth, Example 25
[8] = surfactant 3 wt % of broth, Example 26

Row | Molecule | Secretion efficiency (%) [1, 4] | Optical density (OD) of broth at the end of culturing [2, 4] | Optical density (OD) of broth at the end of culturing [3, 5] | other results
1 | CCCCCCCCCCCCCCCCOP(=O)([O-])OCC[N+](C)(C)C [Surfactant (A3-4), miltefosine, reference compound] | 54% | 7.91 OD | 30.7 OD | 
2 | sodium polyoxyethylene (average 2.5 mol adduct) lauryl ether sulfate [Surfactant (A1-1)] | 49% | 5.77 OD | 26.8 OD | 
3 | CCCCCCCCCCCC[N+](C)(C)CC(=O)[O-] [Surfactant (A3-5), betaine lauryldimethylaminoacetate] | 61% | 7.33 OD | 26.1 OD | 
4 | CCCCCCCCCCCCNCCC(=O)O | 63% | 6.0 OD | 21.1 OD | Secretion efficiency (%) [1, 6]: 49%; Secretion efficiency (%) [1, 7]: 77%; Secretion efficiency (%) [1, 8]: 79%; Optical density (OD) of broth at the end of culturing [2, 6]: 5.1 OD; Optical density (OD) of broth at the end of culturing [2, 7]: 2.7 OD; Optical density (OD) of broth at the end of culturing [2, 8]: 2.7 OD; Optical density (OD) of broth at the end of culturing ([3]; surfactant 0.003 wt % of broth, Example 12): 22.2 OD; Optical density (OD) of broth at the end of culturing ([3]; surfactant 0.3 wt % of broth, Example 14): 18.1 OD; Optical density (OD) of broth at the end of culturing ([3]; surfactant 3 wt % of broth, Example 15): 10.5 OD
5 | sodium polyoxyethylene (average 3 mol adduct) lauryl ether acetate [Surfactant (A1-2)] | 48% | 5.68 OD | 29.1 OD | 
6 | CCCCCCCCCCCC[N+](C)(C)CCCS(=O)(=O)O.[OH-] [Surfactant (A3-3), dodecyldimethyl(3-sulfopropyl)ammonium hydroxide] | 54% | 8.07 OD | 27.6 OD | 
7 | sodium (2-dodecylamino)ethanesulfonate [Surfactant (A3-1)] | 57% | 5.7 OD | 27.0 OD | 
8 | CCCCCCCCCCCC[N+](C)(C)C.[Cl-] [Surfactant (A2-1), lauryl trimethyl ammonium chloride] | 61% | 3.94 OD | 15.8 OD | 
